Measurements: the NIST ThermoML archive (doi:10.1021/je060475r)

Assay: xn = mol fraction of the nth substance listed
Conditions: 101 kPa, Liquid

O=CN1CCOCC1 [N-formylmorpholine] + Cc1ccccc1
Conditions	mass density [kg/m3]	viscosity [mPa·s]
298.15 K, x2 = 0	1146.06	7.955
298.15 K, x2 = 0.0997	1118.85	6.045
298.15 K, x2 = 0.1857	1095.98	4.343
298.15 K, x2 = 0.2987	1064.62	3.106
298.15 K, x2 = 0.3979	1036.62	2.334
298.15 K, x2 = 0.4996	1007.87	1.769
298.15 K, x2 = 0.5993	979.41	1.376
298.15 K, x2 = 0.701	949.94	1.064
298.15 K, x2 = 0.8004	920.72	0.846
298.15 K, x2 = 0.9	891.62	0.681
303.15 K, x2 = 0	1141.7	6.877
303.15 K, x2 = 0.0997	1114.45	5.223
303.15 K, x2 = 0.1857	1091.57	3.824
303.15 K, x2 = 0.2987	1060.17	2.771
303.15 K, x2 = 0.3979	1032.11	2.116
303.15 K, x2 = 0.4996	1003.25	1.614
303.15 K, x2 = 0.5993	974.76	1.261
303.15 K, x2 = 0.701	945.23	0.994
303.15 K, x2 = 0.8004	916.11	0.79
303.15 K, x2 = 0.9	887	0.636
313.15 K, x2 = 0	1132.96	5.214
313.15 K, x2 = 0.0997	1105.62	4.037
313.15 K, x2 = 0.1857	1082.68	3.035
313.15 K, x2 = 0.2987	1051.22	2.248
313.15 K, x2 = 0.3979	1022.87	1.754
313.15 K, x2 = 0.4996	993.89	1.323
313.15 K, x2 = 0.5993	965.36	1.076
313.15 K, x2 = 0.701	935.9	0.854
313.15 K, x2 = 0.8004	906.8	0.69
313.15 K, x2 = 0.9	877.53	0.569
323.15 K, x2 = 0	1124.33	4.08
323.15 K, x2 = 0.0997	1096.88	3.219
323.15 K, x2 = 0.1857	1073.89	2.475
323.15 K, x2 = 0.2987	1042.33	1.864
323.15 K, x2 = 0.3979	1013.75	1.471
323.15 K, x2 = 0.4996	984.5	1.13
323.15 K, x2 = 0.5993	955.91	0.929
323.15 K, x2 = 0.701	926.58	0.747
323.15 K, x2 = 0.8004	897.51	0.613
323.15 K, x2 = 0.9	868.21	0.508
333.15 K, x2 = 0	1115.63	3.284
333.15 K, x2 = 0.0997	1088.08	2.622
333.15 K, x2 = 0.1857	1065	2.057
333.15 K, x2 = 0.2987	1033.38	1.576
333.15 K, x2 = 0.3979	1004.52	1.259
333.15 K, x2 = 0.4996	975.06	0.979
333.15 K, x2 = 0.5993	946.52	0.813
333.15 K, x2 = 0.701	917.23	0.66
333.15 K, x2 = 0.8004	888.11	0.544
333.15 K, x2 = 0.9	858.77	0.453
343.15 K, x2 = 0	1107.96	2.707
343.15 K, x2 = 0.0997	1080.32	2.189
343.15 K, x2 = 0.1857	1057.15	1.748
343.15 K, x2 = 0.2987	1025.32	1.353
343.15 K, x2 = 0.3979	996.41	1.096
343.15 K, x2 = 0.4996	966.84	0.888
343.15 K, x2 = 0.5993	938.07	0.72
343.15 K, x2 = 0.701	908.7	0.59
343.15 K, x2 = 0.8004	879.44	0.49
343.15 K, x2 = 0.9	850.05	0.412
353.15 K, x2 = 0	1098.76	2.274
353.15 K, x2 = 0.0997	1070.98	1.804
353.15 K, x2 = 0.1857	1047.73	1.505
353.15 K, x2 = 0.2987	1015.94	1.179
353.15 K, x2 = 0.3979	986.63	0.96
353.15 K, x2 = 0.4996	957.13	0.791
353.15 K, x2 = 0.5993	928.16	0.644
353.15 K, x2 = 0.701	898.81	0.531
353.15 K, x2 = 0.8004	869.48	0.444
353.15 K, x2 = 0.9	839.94	0.377
